Laboratory results as given in ChEMBL document CHEMBL1140590, “3-(2'-Bromopropionylamino)-benzamides as novel S-phase arrest agents” (Bioorg Med Chem Lett, 2007).
One block for each compound: values may come before it.

How the values were obtained:
MOLT-3 = assay: Antiproliferative activity against human Molt3 cells; type: functional, cell-based
[1] = Antiproliferative activity against human DND1 cells; type: functional, cell-based
Bel-7402 = assay: Antiproliferative activity against human Bel7402 cells; type: functional, cell-based
PC-3 = assay: Antiproliferative activity against human PC3 cells; type: functional, cell-based
MCF7 = assay: Antiproliferative activity against human MCF7 cells; type: functional, cell-based
DU-145 = assay: Antiproliferative activity against human DU145 cells; type: functional, cell-based
CEM (Homo sapiens) [2] = assay: Cell cycle arrest in human CEM cells by accumulation at S phase after 6 hrs at 6.14 uM
CEM (Homo sapiens) [3] = assay: Cell cycle arrest in human CEM cells by accumulation at S phase after 6 to 12 hrs at 6.14 uM
CEM (Homo sapiens) [4] = assay: Cell cycle arrest in human CEM cells by accumulation at S phase after 24 hrs at 6.14 uM

IC50 (MOLT-3): 4220 nM
Structure (SMILES): COc1cc(NC(=O)NC(=O)c2cccc(NC(=O)C(C)Br)c2)cc(OC)c1OC (stereo unspecified)

IC50 (MOLT-3): 2000 nM
Structure (SMILES): CC(Br)C(=O)Nc1cccc(C(=O)Nc2ccc(F)cc2)c1 (stereo unspecified)

IC50 (MOLT-3): 8940 nM
Structure (SMILES): CCCNC(=O)c1cccc(NC(=O)C(C)Br)c1 (stereo unspecified)

IC50 (MOLT-3): 850 nM
Structure (SMILES): COc1cc(NC(=O)c2cc(NC(=O)C(C)Br)ccc2F)ccc1O (stereo unspecified)

IC50 (MOLT-3): 120 nM
IC50 (Bel-7402): 2330 nM
IC50 (PC-3): 2360 nM
IC50 (MCF7): 1230 nM
IC50 (DU-145): 1870 nM
Structure (SMILES): COc1ccc(NC(=O)c2cccc(NC(=O)C(C)Br)c2)cc1OC (stereo unspecified)
Activity (CEM (Homo sapiens) [2]): 52.9%
IC50 [1]: 1400 nM
Activity (CEM (Homo sapiens) [3]): 62.7%
Activity (CEM (Homo sapiens) [4]): 61.9%

IC50 (MOLT-3): 1600 nM
Structure (SMILES): CC(Br)C(=O)Nc1cccc(C(=O)NC(N)=O)c1 (stereo unspecified)

IC50 (MOLT-3): 5720 nM
Structure (SMILES): COc1cc(NC(=O)c2ccccc2NC(=O)C(C)Br)cc(OC)c1OC (stereo unspecified)

IC50 (MOLT-3): 1790 nM
Structure (SMILES): COc1cc(NC(=O)c2ccc(NC(=O)C(C)Br)cc2)cc(OC)c1OC (stereo unspecified)

IC50 (MOLT-3): 670 nM
IC50 (Bel-7402): 2640 nM
IC50 (PC-3): 2460 nM
IC50 (MCF7): 1470 nM
IC50 (DU-145): 1930 nM
Structure (SMILES): COc1cc(NC(=O)c2cccc(NC(=O)C(C)Br)c2)cc(OC)c1OC (stereo unspecified)
IC50 [1]: 2260 nM

IC50 (MOLT-3): > 10000 nM
Structure (SMILES): CCOc1ccc(NC(=O)c2cc(NC(=O)C(C)Br)ccc2F)cc1 (stereo unspecified)

IC50 (MOLT-3): > 10000 nM
Structure (SMILES): CCCCNC(=O)c1cccc(NC(=O)C(C)Br)c1 (stereo unspecified)

IC50 (MOLT-3): 500 nM
IC50 (Bel-7402): 2700 nM
IC50 (PC-3): 2420 nM
IC50 (MCF7): 2200 nM
IC50 (DU-145): 2350 nM
Structure (SMILES): COc1cc(NC(=O)c2cc(NC(=O)C(C)Br)ccc2F)ccn1 (stereo unspecified)
IC50 [1]: 2570 nM

IC50 (MOLT-3): 1660 nM
Structure (SMILES): COc1ccc2nc(NC(=O)c3cccc(NC(=O)C(C)Br)c3)sc2c1 (stereo unspecified)

IC50 (MOLT-3): 620 nM
Structure (SMILES): CC(Br)C(=O)Nc1cccc(C(=O)Nc2ccc3c(c2)OCO3)c1 (stereo unspecified)

IC50 (MOLT-3): > 10000 nM
Structure (SMILES): CC(Br)C(=O)Nc1cccc(C(=O)NCCN(C)C)c1 (stereo unspecified)

Second part, the compound before the results:

Structure (SMILES): COc1ccc(NC(=O)c2cccc(NC(=O)C(C)Br)c2)cc1 (stereo unspecified)
IC50 (MOLT-3): 800 nM

Structure (SMILES): COc1cc(NC(=O)c2cc(NC(=O)C(C)Br)ccc2O)cc(OC)c1OC (stereo unspecified)
IC50 (MOLT-3): 1080 nM

Structure (SMILES): COc1cc(NC(=O)c2ccc(F)c(NC(=O)C(C)Br)c2)cc(OC)c1OC (stereo unspecified)
IC50 (MOLT-3): 2200 nM

Structure (SMILES): COc1cc(C(=O)Nc2cccc(NC(=O)C(C)Br)c2)cc(OC)c1OC (stereo unspecified)
IC50 (MOLT-3): 5660 nM

Structure (SMILES): COc1ccc(NC(=O)c2cc(NC(=O)C(C)Br)ccc2F)cc1 (stereo unspecified)
IC50 (MOLT-3): 250 nM
IC50 [1]: 2560 nM
IC50 (Bel-7402): 3370 nM
IC50 (PC-3): 2430 nM
IC50 (MCF7): 1390 nM
IC50 (DU-145): 6450 nM

Structure (SMILES): COc1ccc(NC(=O)c2cc(NC(=O)C(C)Br)ccc2F)cc1OC (stereo unspecified)
IC50 (MOLT-3): 470 nM

Structure (SMILES): COc1cc(NC(=O)c2cccc(NC(=O)C(C)Br)c2)cc(OC)c1 (stereo unspecified)
IC50 (MOLT-3): 610 nM

Structure (SMILES): COc1ccc(C(=O)Nc2cc(OC)c(OC)c(OC)c2)cc1NC(=O)C(C)Br (stereo unspecified)
IC50 (MOLT-3): 4240 nM

Structure (SMILES): COc1cc(NC(=O)c2ccc(Cl)c(NC(=O)C(C)Br)c2)cc(OC)c1OC (stereo unspecified)
IC50 (MOLT-3): 2250 nM

Structure (SMILES): CC(Br)C(=O)Nc1cccc(C(=O)Nc2ccc3[nH]c4ccccc4c3c2)c1 (stereo unspecified)
IC50 (MOLT-3): 1510 nM

Structure (SMILES): COc1cc(NC(=O)c2cc(NC(=O)C(C)Br)ccc2F)cc(OC)c1OC (stereo unspecified)
IC50 (MOLT-3): 420 nM
IC50 [1]: 4160 nM
IC50 (Bel-7402): 2050 nM
IC50 (PC-3): 2180 nM
IC50 (MCF7): 2110 nM
IC50 (DU-145): 2030 nM

Structure (SMILES): COc1cc(NS(=O)(=O)c2cccc(NC(=O)C(C)Br)c2)cc(OC)c1OC (stereo unspecified)
IC50 (MOLT-3): 1270 nM

Structure (SMILES): CC(Br)C(=O)Nc1cccc(C(=O)N2CCN(C)CC2)c1 (stereo unspecified)
IC50 (MOLT-3): > 10000 nM

Structure (SMILES): COc1cc([C@@H]2c3cc4c(cc3[C@H](O)[C@H]3COC(=O)[C@H]23)OCO4)cc(OC)c1OC [PODOFILOX]
IC50 [1]: 12 nM

Structure (SMILES): COc1cc(NC(=O)c2cccc(NC(=O)C(C)Br)c2)ccc1O (stereo unspecified)
IC50 (MOLT-3): 510 nM
IC50 [1]: 1220 nM
IC50 (Bel-7402): 5260 nM
IC50 (PC-3): 3130 nM
IC50 (MCF7): 860 nM
IC50 (DU-145): 6480 nM

Structure (SMILES): COc1ccc(/C=C\c2cc(OC)c(OC)c(OC)c2)cc1O [COMBRETASTATIN A4]
IC50 (MOLT-3): 90 nM
IC50 [1]: 3 nM
IC50 (DU-145): 9 nM
